Several values for one entry are separate records, joined by “and”; a condition that tells them apart may be missing. Equal entries are not always repeated. Where two headings read alike, the source gives them in different places.
Columns and labels:
[1] = tested on: multiple myeloma tumor cells from patients; experiment: MTT cell viability assay, multiple myeloma patient tumor cells; conditions: patient 1 tumor cells, 48 hours, MTT; Salmeterol 0 nM (single agent); DEX (μM): 4.0, 2.0, 1.0, 0.5, 0.25, 0.125, 0.0625
Source text: Tumor cells were obtained via bone marrow aspirates and affinity selected using CD138-linked magnetic beads.

[2] = tested on: Human Multiple Myeloma Cells (ANBL-6)
[3] = tested on: Human Multiple Myeloma Cells (MM.1S); experiment: cells; conditions: MM1.S
[4] = tested on: human multiple myeloma xenografts (MM1S); experiment: MM.1S xenograft model in SCID mice; type: in vivo, mouse; conditions: Dex 1 mg/kg or salmeterol 10 mg/kg, subcutaneous daily
Experimental: The human multiple myeloma cell line MM1S was injected subcutaneously into the flanks of SCID mice. Five days following the injection of MM1S cells, animals were randomized into the following four treatment groups (n=6-7) based on tumor size.
Group 1—Vehicle (90% PBS+10% EtOH)
The prepared test, positive, and negative control substances were administered via subcutaneous injection daily for up to 85 Days. During the treatment period, tumor volume and animal body weights were measured 3 times per week (Monday, Wednesday and Friday). The animals were removed from the study if there was overall poor body condition, tumor volume above 3000 mm^3, body weight loss greater than or equal to 20% or ulcerated tumors.
The slope of the tumor volume growth of each animal was calculated from the initial study day until the day each animal was removed from the study. From these slopes the mean change in tumor volume per study day was calculated.

[5] = tested on: Human Multiple Myeloma Cells (MM.1S); conditions: Salmeterol 0 μM (single agent), DEX (μM): 0.15, 0.076, 0.038, 0.019, 0.0096
[6] = tested on: Human Multiple Myeloma Cells (MM.1S) cultured in the presence of BAR agonist for one month; experiment: Antiproliferative activity on MM.1S cultured one month in the presence of salmeterol or salbutamol; type: cell-based; conditions: Homo sapiens, MM1.S, […] dexamethasone; cells cultured one month in salmeterol (64 nM), Table 48; read-out: inhibition of proliferation
Source text: A recurrent problem in cancer therapy is that prolonged exposure of tumor cells to chemotherapeutic agents can generate cells resistant to agents that initially have antiproliferative or cell killing activity. […] Cells cultured for one month in the presence of BAR agonist were washed to remove drug and put into 384 well plates for 9×9 dose matrix combination screening with BAR agonists and dexamethasone.

[7] = tested on: Human Multiple Myeloma Cells (MM.1S); experiment: Anti-proliferation assay (ATPLite, 72 hours), MM.1S
MM.1S cells = experiment: Annexin V/PI FACS assay of control MM.1S and cells cultured one month with salmeterol or salbutamol; type: cell-based, human
Experimental: Forty eight hours later, the percent of cells positive for Annexin V and propidium iodide (PI) was determined using FACS (FIG. 5).

[8] = tested on: Human Multiple Myeloma Cells (MM.1S)

## C[C@@H]1C[C@H]2[C@@H]3CCC4=CC(=O)C=C[C@]4(C)[C@@]3(F)[C@@H](O)C[C@]2(C)[C@@]1(O)C(=O)CO [dexamethasone]
[1]
  Reduction in Cell Viability: 50% and 56% and 53% and 46% and 47%
[2]
  inhibition: 6.13%
[3]; read-out: inhibition of proliferation, 0.15 μM dexamethasone, 10 ng/ml IL-6 (Table 53)
  inhibition at 0.15 µM: 24%
[3]; read-out: inhibition of proliferation, 0.15 μM dexamethasone, no IL-6 (Table 52)
  inhibition at 0.15 µM: 52%
[4]
  study day by which all animals of the group were removed: ≤ 66 study day
[5]; +10 ng/ml IL-6
  percent inhibition of cell proliferation: 26%
[5]; no IL-6
  percent inhibition of cell proliferation: 45% and 44% and 32% and 27%
[6]
  inhibition at […]: 51%
[7]; Clenbuterol 0 μM (single agent), Dexamethasone (μM): 0.15, 0.076, 0.038, 0.019, 0.0095, no ICI 118,551
  percent inhibition of cell proliferation: 47% and 38% and 70% and 63% and 56%
[7]; naïve MM.1S, Salbutamol 0 μM (single agent), DEX (μM) by row: r8 2.0, r9 0.666, r10 0.23, r11 0.074, r12 0.024, r13 0.0082, r14 0.00274, r15 0.0009
  percent inhibition of cell proliferation: 75%
MM.1S cells; cells exposed to salmeterol for one month, 8 nM dexamethasone, 48 hours
  Annexin V/PI+ cells: 47%
MM.1S cells; cells exposed to salmeterol for one month, 80 nM dexamethasone, 48 hours
  Annexin V/PI+ cells: 65%
MM.1S cells; control cells, 8 nM dexamethasone, 48 hours (FIG. 5)
  Annexin V/PI+ cells: 8%
MM.1S cells; control cells, 80 nM dexamethasone, 48 hours (FIG. 5)
  Annexin V/PI+ cells: 45%
[8]
  inhibition: 39%

Reference: patent US20100009934A1, “BETA ADRENERGIC RECEPTOR AGONISTS FOR THE TREATMENT OF B-CELL PROLIFERATIVE DISORDERS” (CombinatoRx, Incorporated, priority 2008, published 2010)
